This note sets out measurements from PMC12369477 (Journal of Experimental Botany, 2025).

The target in assay [1] is T1, AtGH3.6 (Arabidopsis thaliana, UniProt Q9LSQ4).
T1 construct: gene GH3.6
T1 sequence (Q9LSQ4 1-612): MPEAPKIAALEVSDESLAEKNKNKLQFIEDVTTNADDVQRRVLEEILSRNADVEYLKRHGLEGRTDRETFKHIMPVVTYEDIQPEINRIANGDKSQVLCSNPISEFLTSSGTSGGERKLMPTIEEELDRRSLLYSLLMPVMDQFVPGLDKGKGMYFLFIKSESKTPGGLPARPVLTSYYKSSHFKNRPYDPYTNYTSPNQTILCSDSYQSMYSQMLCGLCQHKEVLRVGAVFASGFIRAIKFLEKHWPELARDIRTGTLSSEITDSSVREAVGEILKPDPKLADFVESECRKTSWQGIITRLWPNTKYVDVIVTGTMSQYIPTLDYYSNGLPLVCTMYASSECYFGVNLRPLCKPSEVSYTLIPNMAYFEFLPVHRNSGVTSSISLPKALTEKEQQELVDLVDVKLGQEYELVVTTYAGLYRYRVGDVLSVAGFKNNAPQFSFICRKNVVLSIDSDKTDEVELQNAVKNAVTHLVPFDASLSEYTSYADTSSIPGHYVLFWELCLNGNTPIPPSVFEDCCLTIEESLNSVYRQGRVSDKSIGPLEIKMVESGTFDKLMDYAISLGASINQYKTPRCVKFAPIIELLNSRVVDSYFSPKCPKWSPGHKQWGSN
The assay can be described thus: crystal structure with AMP and Asp; MST. It is filed as binding.

Assay [2] has as its target T1, AtGH3.6. The assay can be described thus: MST. It is filed as binding.
The target of the next assay is T2, UGT74D1 (Arabidopsis thaliana, UniProt Q9SKC5).
T2 construct: recombinant AtUGT74D1 in E. coli lysate
T2 sequence (Q9SKC5 1-456): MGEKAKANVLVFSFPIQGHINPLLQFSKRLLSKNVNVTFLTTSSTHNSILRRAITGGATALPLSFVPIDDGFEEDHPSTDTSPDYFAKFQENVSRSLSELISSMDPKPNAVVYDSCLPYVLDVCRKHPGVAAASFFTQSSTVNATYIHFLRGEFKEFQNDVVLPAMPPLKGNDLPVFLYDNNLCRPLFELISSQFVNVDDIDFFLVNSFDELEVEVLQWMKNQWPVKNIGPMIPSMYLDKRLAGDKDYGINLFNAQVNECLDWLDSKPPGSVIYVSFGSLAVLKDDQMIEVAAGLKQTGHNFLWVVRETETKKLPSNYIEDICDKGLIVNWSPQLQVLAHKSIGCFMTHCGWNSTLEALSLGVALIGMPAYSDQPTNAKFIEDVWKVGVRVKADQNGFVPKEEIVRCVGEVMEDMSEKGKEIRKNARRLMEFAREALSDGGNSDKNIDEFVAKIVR
The assay can be described thus: bacterial lysate glucosylation assay, HPLC-MS/MS. The class given is cell-based.

The next assay has as its target T3, UGT84B1 (Arabidopsis thaliana, UniProt O22182).
T3 construct: recombinant AtUGT84B1 in E. coli lysate
T3 sequence (O22182 1-456): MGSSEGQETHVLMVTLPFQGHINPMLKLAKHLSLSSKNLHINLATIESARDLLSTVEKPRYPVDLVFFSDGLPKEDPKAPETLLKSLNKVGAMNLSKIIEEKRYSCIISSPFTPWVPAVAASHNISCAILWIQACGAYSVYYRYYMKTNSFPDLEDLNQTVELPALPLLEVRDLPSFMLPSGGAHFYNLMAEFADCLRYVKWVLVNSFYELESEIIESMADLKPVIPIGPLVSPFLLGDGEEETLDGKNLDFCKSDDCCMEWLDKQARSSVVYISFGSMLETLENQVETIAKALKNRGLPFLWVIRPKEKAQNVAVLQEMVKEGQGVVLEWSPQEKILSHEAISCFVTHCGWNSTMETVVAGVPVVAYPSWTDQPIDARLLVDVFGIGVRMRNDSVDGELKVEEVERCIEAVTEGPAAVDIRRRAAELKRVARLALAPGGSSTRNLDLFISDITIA
Nature of the assay: bacterial lysate glucosylation assay, HPLC-MS/MS. The class given is cell-based.

In assay [3] the target is T1, AtGH3.6. Nature of the assay: MST; also conjugated by AtGH3.[…] in bacterial lysate assay. The class given is binding.

The structures appear in SMILES notation.

Take `N[C@@H](CC(=O)O)C(=O)O` [Asp, aspartate]: binding on AtGH3.6 [1] was put at a Kd of 680 µM. The compound `N[C@@H](CCC(=O)O)C(=O)O` [Glu] displayed a Kd at AtGH3.6 [2] of 720 µM. Take `O=C(O)Cc1c[nH]c2ccccc12` [IAA, indole-3-acetic acid]: the “bacterial lysate glucosylation assay, HPLC-MS/MS” value on UGT74D1 is “Both UGT84B1 and UGT74D1 recombinant proteins showed the capability to produce IAA-glc and PAA-glc”; at UGT84B1, “Both UGT84B1 and UGT74D1 recombinant proteins showed the capability to produce IAA-glc and PAA-glc”. The Kd on AtGH3.6 [2] (read-out: Kd) was approximately 60 µM. On to `O=C(O)Cc1ccccc1` [PAA, phenylacetic acid], for which the Kd at AtGH3.6 [3] is approximately 60 µM.
